Experimental data reported in patent publication US8268825B2 (priority 2005, dated 2012).
Values after ≈ are worked out from the molar mass of the structure shown.

Tests used:
Bacillus anthracis DHFR = Bacillus anthracis DHFR (Bacillus anthracis, UniProt Q81R22); test: biochemical
human DHFR = molecular target: T1, human DHFR (Homo sapiens, UniProt P00374); test: biochemical
T1 sequence (P00374 1-187): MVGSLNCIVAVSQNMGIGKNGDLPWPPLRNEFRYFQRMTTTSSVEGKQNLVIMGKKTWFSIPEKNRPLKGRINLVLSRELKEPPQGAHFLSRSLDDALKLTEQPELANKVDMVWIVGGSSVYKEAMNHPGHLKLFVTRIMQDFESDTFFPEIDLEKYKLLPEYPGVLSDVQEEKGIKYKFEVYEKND

[1] = tested on: Bacillus anthracis Sterne; test: microbe, parasite or virus in culture; type: cell-based; settings: 16 h, read-out: MIC B. anthracis (ug/ml)

Sequence of Bacillus anthracis DHFR (Q81R22 1-162): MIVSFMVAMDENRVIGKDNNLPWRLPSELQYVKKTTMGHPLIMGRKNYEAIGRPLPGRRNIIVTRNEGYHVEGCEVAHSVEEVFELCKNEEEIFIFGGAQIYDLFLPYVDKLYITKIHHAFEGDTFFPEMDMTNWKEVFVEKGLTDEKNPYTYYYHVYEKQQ

In the case of COc1cc(Cc2cnc(N)nc2N)cc(/C=C/C(=O)N2N=Cc3ccccc3C2c2ccccc2)c1OCCN1CCOCC1 (stereo not shown), the IC50 (Bacillus anthracis DHFR) is reported as 170 nM, the IC50 (human DHFR) is reported as over 16 µM and the MIC [1] is reported as at most 32 µg/mL.
COc1cc(Cc2cnc(N)nc2N)cc(/C=C/C(=O)N2N=Cc3ccccc3C2c2ccccc2)c1OC.CS(=O)(=O)O (stereo not shown) showed an IC50 (Bacillus anthracis DHFR) of 46 nM and an MIC [1] of 26 µg/mL.
CCCC1c2ccccc2C=NN1C(=O)/C=C/c1cc(Cc2cnc(N)nc2N)cc(OC)c1OC (stereo not shown) was tested, and the IC50 (Bacillus anthracis DHFR) was 54 nM, the IC50 (human DHFR) was 110 µM and the MIC [1] was 13 µg/mL (≈ 26.7 µM).
Work on COc1cc(Cc2cnc(N)nc2N)cc(OC)c1OC [Trimethoprim, reference compound] yielded an MIC [1] of over 2000 µg/mL.
Work on COc1cc(Cc2cnc(N)nc2N)cc(/C=C/C(=O)N2N=Cc3ccccc3C2C2CCCC2)c1OC (stereo not shown) yielded an IC50 (Bacillus anthracis DHFR) of 200 nM, an IC50 (human DHFR) of over 21 µM and an MIC [1] of at most 26 µg/mL.
COc1cc(Cc2cnc(N)nc2N)cc(/C=C/C(=O)N2N=Cc3ccccc3C2C2CCCCC2)c1OC (stereo not shown) showed an IC50 (Bacillus anthracis DHFR) of 260 nM and an MIC [1] of at most 13 µg/mL.
In the case of CCCCC1c2ccccc2C=NN1C(=O)/C=C/c1cc(Cc2cnc(N)nc2N)cc(OC)c1OC (stereo not shown), the IC50 (Bacillus anthracis DHFR) is reported as 170 nM and the MIC [1] is reported as at most 13 µg/mL.
